Results: paper PMC12223813, “Antiproliferative and Trypanocidal Activity of Ivermectin Bioconjugates” (ACS Omega, 2025)
Like-named read-outs stand apart in the source and are kept apart here.

Experiments:
[1] = system: bloodstream forms of T. b. brucei (427-221a clone); experiment: microbe, parasite or virus in culture; conditions: for GI50: Trypanosoma brucei, 72 h, read-out: T. brucei GI50, bloodstream forms, 72 h total (24 h + 48 h with resazurin), mean ± SD of three independent experiments
Description: (§1) The trypanocidal and cytotoxic activities of the newly synthesized IVR bioconjugates and their conjugation partners were determined for bloodstream forms of T. brucei brucei and human myeloid HL-60 cells in vitro using the resazurin cell viability assay as previously described.
(§2) Test compounds were assayed at 10-fold dilutions ranging from 100 μM to 1 nM in the presence of 0.9% DMSO. Controls were grown in the culture medium containing only 0.9% DMSO. The assays were cultured in an incubator at 37 °C in a humidified atmosphere containing 5% CO2. After 24 h incubation, 20 μL of 0.5 mM resazurin (prepared in sterile PBS) was added, and the cultures were grown for another 48 h. Then, the proliferation of the cells was determined by measuring the absorbance at 570 nm (test wavelength) and 630 nm (reference wavelength) using a microplate reader.

[2] = system: human promyelocytic leukemia HL-60 cells; experiment: Cytotoxic activity, resazurin cell viability assay; type: cell-based; conditions: 72 h total (24 h + 48 h with resazurin), mean ± SD of three independent experiments
Description: as §1, §2

[3] = system: A549, human lung cancer cell line; experiment: Antiproliferative activity, MTT assay; type: cell-based; conditions: for IC50: Homo sapiens, A549, 72 h, MTT, mean ± SD; for A549 SI: SI = IC50 HaCaT/IC50 A549
Description: (§3) Additionally, to assess the selectivity of these compounds toward cancer cells, we included an immortalized keratinocyte cell line from adult human skin (HaCaT) in the antiproliferative activity tests. Doxorubicin served as the reference anticancer drug.
(§4) The culture media were enriched with 10% fetal bovine serum (FBS, Sigma-Aldrich, St. Louis, MO, USA), 20 mM HEPES (Biowest, Nuaillé, France), and antibiotics (100 U/mL penicillin and 100 μg/mL streptomycin) obtained from Gibco (Grand Island, NY, USA). The cells were maintained in a humidified incubator at 37 °C with 5% CO2 until they reached 80–90% confluence, after which they were used for further experiments.
(§5) To assess the cytotoxicity, the cells (0.5 × 10^4/well) were plated in 96-well plates and allowed to adhere for 24 h. The MTT (3-(4,5-dimethylthiazol-2-yl)-2,5-diphenyltetrazolium bromide) assay was used to evaluate the cytotoxic effects of IVR bioconjugates on all tested cell lines. After 24 h incubation, cells were exposed to varying concentrations (1 to 100 μM) of the test compounds for 72 h. Following the treatment, the medium was discarded, and a 0.5 mg mL^–1 MTT solution was added to each well and incubation was continued for another 4 h. Mitochondrial enzyme activity facilitated the formation of formazan crystals, which were subsequently dissolved in DMSO-isopropanol (1:1, v/v), producing a violet-colored solution. A 100 μL aliquot of this solution was transferred to the well, and absorbance was recorded at 570 nm using a MultiscanGo spectrophotometer (ThermoFisher Scientific, Carlsbad, CA, USA).
(§6) Cytotoxicity was quantified by comparing the absorbance of the treated cells to that of untreated controls using the formula: [A]/[B] × 100, where [A] represents the absorbance of the treated sample and [B] corresponds to the absorbance of the control sample. A decrease in MTT levels reflects a decrease in cell viability.

[4] = system: HCT-116, human primary colon cancer cell line; experiment: Antiproliferative activity, MTT assay; type: cell-based; conditions: for IC50: Homo sapiens, HCT-116, 72 h, MTT, mean ± SD; for HCT-116 SI: SI = IC50 HaCaT/IC50 HCT-116
Description: as §3, §4, §5, §6

[5] = system: MDA-MB-231, human triple-negative breast cancer cell line; experiment: Antiproliferative activity, MTT assay; type: cell-based; conditions: for IC50: Homo sapiens, MDA-MB-231, 72 h, MTT, mean ± SD; for MDA-MB-231 SI: SI = IC50 HaCaT/IC50 MDA-MB-231
Description: as §3, §4, §5, §6

[6] = system: PC3, human metastatic prostate cancer cell line; experiment: Antiproliferative activity, MTT assay; type: cell-based; conditions: for IC50: Homo sapiens, 72 h, MTT, mean ± SD; for PC3 SI: SI = IC50 HaCaT/IC50 PC3
Description: as §3, §4, §5, §6

[7] = system: HaCaT, human immortalized keratinocyte cell line; experiment: Cytotoxicity toward normal cells, MTT assay; type: cell-based; conditions: 72 h, mean ± SD
Description: as §3, §4, §5, §6

SMILES | GI50 [1] [µM] | GI50 [2] [µM] | IC50 [3] [µM] | IC50 [4] [µM] | IC50 [5] [µM] | IC50 [6] [µM] | IC50 [7] [µM] | selectivity GI50 ratio ([1]; GI50(HL-60)/GI50(T. brucei)) | A549 SI [3] | HCT-116 SI [4] | MDA-MB-231 SI [5] | PC3 SI [6] | selectivity GI50 ratio [1]
C=C[C@H]1C[N@@]2CC[C@H]1C[C@@H]2[C@@H](O)c1ccnc2ccc(OC)cc12 [quinidine, reference compound] | 0.32 ± 0.04 | > 100 | 55.8 ± 5.3 | 67.4 ± 8.9 | 76.2 ± 4.6 | 86.1 ± 1.2 | > 100 |  |  |  |  |  | 
Cc1ccc(C(=O)Nc2ccc(S(=O)(=O)O)c3cc(S(=O)(=O)O)cc(S(=O)(=O)O)c23)cc1NC(=O)c1cccc(NC(=O)Nc2cccc(C(=O)Nc3cc(C(=O)Nc4ccc(S(=O)(=O)O)c5cc(S(=O)(=O)O)cc(S(=O)(=O)O)c45)ccc3C)c2)c1 [suramin, reference compound] | 0.039 ± 0.004 | > 100 |  |  |  |  |  |  |  |  |  |  | 
CC[C@H](C)[C@H]1O[C@]2(CC[C@@H]1C)C[C@@H]1C[C@@H](C/C=C(\C)[C@@H](OC(=O)N[C@H]3CCc4cc(OC)c(OC)c(OC)c4-c4ccc(SC)c(=O)cc43)[C@@H](C)/C=C/C=C3\CO[C@@H]4[C@H](O)C(C)=C[C@@H](C(=O)O1)[C@]34O)O2 [compound 8] | 1.4 ± 0.5 | 10.1 ± 4.9 | 12.4 ± 2.6 | 7.5 ± 1.6 | 6.6 ± 0.6 | 85.1 ± 9.8 | > 100 | 7.2 | >8.1 | >13.3 | >15.2 | >1.2 | 
C=C(C)C1CCC2(C(=O)OCc3cn(CC(=O)OC4C(C)=CCC5CC(CC6(CCC(C)C(C(C)CC)O6)O5)OC(=O)C5C=C(C)C(O)C6OCC(=CC=CC4C)C56O)nn3)CCC3(C)C(CCC4C5(C)CCC(O)C(C)(C)C5CCC43C)C12 (stereo not shown) [compound 15, Ivermectin–Betulinic Acid Conjugate] | 21.9 ± 2.1 | > 100 | > 100 | 70.1 ± 6.4 | > 100 | 93.9 ± 6.4 | > 100 | >4.6 | ∼1.0 | >1.4 | ∼1.0 | >1.1 | 
C=C[C@H]1CN2CC[C@H]1C[C@H]2[C@H](O)c1ccnc2ccccc12 [cinchonidine, reference compound] | 2.1 ± 0.6 | > 100 | > 100 | 87.1 ± 12.1 | > 100 | 86.7 ± 3.9 | > 100 | >47.6 | ∼1.0 | >1.1 | ∼1.0 | >1.2 | 
Cc1ncc([N+](=O)[O-])n1CCO [metronidazole, reference compound] |  | > 100 | > 100 | > 100 | 14.9 ± 3.9 | 57 ± 6.1 | > 100 | ∼1.0 | ∼1.0 | ∼1.0 | >6.7 | >1.8 | 
C=C(C)[C@@H]1CC[C@]2(C(=O)O)CC[C@]3(C)[C@H](CC[C@@H]4[C@@]5(C)CC[C@H](O)C(C)(C)[C@@H]5CC[C@]43C)[C@@H]12 [betulinic acid, reference compound] | 15.4 ± 4.4 | 42.5 ± 2.5 | 98.1 ± 3.1 | 80.1 ± 6.1 | 46.5 ± 4.6 | 66.6 ± 2.3 | > 100 | 2.8 | >1.0 | >1.2 | >2.2 | >1.5 | 
CCC(C)C1OC2(CCC1C)CC1CC(CC=C(C)C(OC(=O)OCC3OC(n4cc(C)c(=O)[nH]c4=O)CC3N=[N+]=[N-])C(C)C=CC=C3COC4C(O)C(C)=CC(C(=O)O1)C34O)O2 (stereo not shown) [compound 11, Ivermectin–Azidothymidine Conjugate] |  | 11.1 ± 4.1 | 8.2 ± 1.9 | 7.7 ± 3.1 | 12.5 ± 1.5 | 8.1 ± 3.2 | 26.1 ± 3.3 | 5.6 | 3.2 | 3.4 | 2.1 | 3.2 | 
C=C[C@H]1CN2CC[C@H]1C[C@@H]2[C@@H](OC(=O)O[C@@H]1/C(C)=C/C[C@@H]2C[C@@H](C[C@]3(CC[C@H](C)[C@@H]([C@@H](C)CC)O3)O2)OC(=O)[C@@H]2C=C(C)[C@@H](O)[C@H]3OC/C(=C\C=C\[C@@H]1C)[C@]32O)c1ccnc2ccc(OC)cc12 [compound 5, Ivermectin–Quinidine Conjugate] | 1.3 ± 0.4 | 22.9 ± 11.2 | 42.3 ± 0.5 | 13.8 ± 3.5 | 10.1 ± 1.4 | 12.4 ± 2.1 | 14.9 ± 1.6 | 17.6 | 0.4 | 1.1 | 1.5 | 1.2 | 
CC[C@H](C)[C@H]1O[C@]2(CC[C@@H]1C)C[C@@H]1C[C@@H](C/C=C(\C)[C@@H](O[C@H]3C[C@H](OC)[C@@H](O[C@H]4C[C@H](OC)[C@@H](O)[C@H](C)O4)[C@H](C)O3)[C@@H](C)/C=C/C=C3\CO[C@@H]4[C@H](O)C(C)=C[C@@H](C(=O)O1)[C@]34O)O2 [compound 1, Ivermectin] |  | 30 ± 1.1 | 7.2 ± 1.4 | 9.9 ± 1.1 | 8.7 ± 3.2 | 33.9 ± 6.3 | 12.6 ± 4.3 |  | 1.8 | 1.3 | 1.4 | 0.4 | 10.3
COc1cccc2c1C(=O)c1c(O)c3c(c(O)c1C2=O)C[C@@](O)(C(=O)CO)C[C@@H]3O[C@H]1C[C@H](N)[C@H](O)[C@H](C)O1 [doxorubicin, reference compound] |  |  | 0.63 ± 0.2 | 0.6 ± 0.02 | 1.83 ± 0.1 | 0.6 ± 0.02 | 0.29 ± 0.1 |  |  |  |  |  | 
CC[n+]1c(-c2ccccc2)c2cc(N)ccc2c2ccc(N)cc21 [ethidium bromide, reference compound] |  | 9.3 ± 2.6 |  |  |  |  |  | 202 |  |  |  |  | 
